A word on the pEC50: it is the negative decadic logarithm of the EC50, by convention in mol/L.

Molecules are shown by their SMILES. pEC50: −log10 of the molar value. “And” between values parts separate entries of the source, which are not always exact repeats. Equal entries are not always repeated.

This is an account of results in US8680139B2 (Progenra, priority 2009, dated 2014).

The experiment deals with T1, USP7 (Homo sapiens, UniProt Q93009).
T1 construct: full length human USP7 protein; made in house
T1 sequence (Q93009 whole entry): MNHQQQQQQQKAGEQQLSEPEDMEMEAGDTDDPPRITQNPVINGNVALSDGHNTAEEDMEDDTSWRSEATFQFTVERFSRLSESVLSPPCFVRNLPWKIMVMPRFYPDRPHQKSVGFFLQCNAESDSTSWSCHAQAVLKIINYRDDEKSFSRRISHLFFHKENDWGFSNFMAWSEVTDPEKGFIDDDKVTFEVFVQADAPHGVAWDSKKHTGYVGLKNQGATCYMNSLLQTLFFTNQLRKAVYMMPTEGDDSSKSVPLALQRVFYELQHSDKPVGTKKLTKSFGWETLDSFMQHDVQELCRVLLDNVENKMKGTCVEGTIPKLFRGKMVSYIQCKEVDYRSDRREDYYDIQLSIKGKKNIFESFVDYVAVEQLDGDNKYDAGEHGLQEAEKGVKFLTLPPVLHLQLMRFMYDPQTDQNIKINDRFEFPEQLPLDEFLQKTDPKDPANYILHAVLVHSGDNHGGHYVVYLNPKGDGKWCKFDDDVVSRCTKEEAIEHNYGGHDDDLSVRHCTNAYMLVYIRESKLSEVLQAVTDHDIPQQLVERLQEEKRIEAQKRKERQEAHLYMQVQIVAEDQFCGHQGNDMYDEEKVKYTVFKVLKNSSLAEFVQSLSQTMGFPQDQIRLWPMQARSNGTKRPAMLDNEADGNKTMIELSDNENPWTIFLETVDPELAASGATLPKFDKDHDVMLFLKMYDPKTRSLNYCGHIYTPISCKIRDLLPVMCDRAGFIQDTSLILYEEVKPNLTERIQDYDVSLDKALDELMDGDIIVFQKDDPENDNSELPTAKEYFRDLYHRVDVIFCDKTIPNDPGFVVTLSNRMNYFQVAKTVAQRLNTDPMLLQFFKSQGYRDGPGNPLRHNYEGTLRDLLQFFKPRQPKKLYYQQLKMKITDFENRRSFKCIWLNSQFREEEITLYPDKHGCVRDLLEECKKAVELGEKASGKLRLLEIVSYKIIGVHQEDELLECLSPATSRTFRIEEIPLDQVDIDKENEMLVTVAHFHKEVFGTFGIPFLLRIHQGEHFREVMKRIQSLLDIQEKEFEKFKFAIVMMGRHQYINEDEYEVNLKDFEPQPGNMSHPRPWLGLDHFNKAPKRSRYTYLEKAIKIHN
Description: USP7, Ub-PLA2 assay. The class given is biochemical. The following applies: Ub-PLA2 / NBD C6-HPC fluorescence, 30 minute preincubation; read-out: EC50 for inhibition of USP7. On the procedure:
The purpose of this assay is to measure the inhibition of USP7 by various compounds of the invention synthesized according to the above-described methods. […] The vehicle control was 100% (v/v) DMSO. 1.6 μL aliquots of the diluted test compound and controls were dispensed into individual wells in a black walled 96 well plate. […] The data were normalized within a plate relative to the control wells using the equation % inhibition=(100−(((RFUcompound−RFUmean NEM) / (RFUmean DMSO−RFUmean NEM))×100)).
Take `O=C(NCc1ccccc1)c1cc([N+](=O)[O-])c(Sc2nc3ccccc3s2)s1` [Example 252, 5-(benzo[d]thiazol-2-ylthio)-N-benzyl-4-nitrothiophene-2-carboxamide]: the pEC50 was 5.00 to 6.00.
In the case of `O=C(NCc1ccco1)c1cc([N+](=O)[O-])c(Sc2c(Cl)cncc2Cl)s1` [Example 52, 5-((3,5-dichloropyridin-4-yl)thio)-N-(furan-2-ylmethyl)-4-nitrothiophene-2-carboxamide] it was 5.00 to 6.00; in that of `O=C(NC1CCC(O)CC1)c1cc([N+](=O)[O-])c(Sc2c(Cl)cncc2Cl)s1` (centres unmarked) [Example 77, 5-((3,5-dichloropyridin-4-yl)thio)-N-(4-hydroxycyclohexyl)-4-nitrothiophene-2-carboxamide], 5.00 to 6.00; in that of `O=C(c1cc([N+](=O)[O-])c(Sc2c(Cl)cncc2Cl)s1)N1CCC(CO)CC1` [Example 73, (5-((3,5-dichloropyridin-4-yl)thio)-4-nitrothiophen-2-yl)(4-(hydroxymethyl)piperidin-1-yl)methanone], 5.00 to 6.00.
With `O=C(Nc1cccc2cccnc12)c1cc([N+](=O)[O-])c(Sc2c(Cl)cncc2Cl)s1` [Example 78, 5-((3,5-dichloropyridin-4-yl)thio)-4-nitro-N-(quinolin-8-yl)thiophene-2-carboxamide], the pEC50 was less than 5.00.
Under `CN(C)c1ccc(NC(=O)c2cc([N+](=O)[O-])c(Sc3c(Cl)cncc3Cl)s2)cc1` [Example 86, 5-((3,5-dichloropyridin-4-yl)thio)-N-(4-(dimethylamino)phenyl)-4-nitrothiophene-2-carboxamide] stands 5.00 to 6.00.
Regarding `O=C(NCCCN1CCC(O)CC1)c1cc([N+](=O)[O-])c(Sc2c(Cl)cncc2Cl)s1` [Example 225, 5-((3,5-dichloropyridin-4-yl)thio)-N-(3-(4-hydroxypiperidin-1-yl)propyl)-4-nitrothiophene-2-carboxamide], the pEC50 was not below 6.00.
Take `CC(C)N1CCC(NC(=O)c2cc([N+](=O)[O-])c(Oc3c(Cl)cncc3Cl)s2)CC1` [Example 260, 5-((3,5-dichloropyridin-4-yl)oxy)-N-(1-isopropylpiperidin-4-yl)-4-nitrothiophene-2-carboxamide]: the pEC50 is less than 5.00.
In the case of `O=C(NC12CC3CC(CC(C3)C1)C2)c1cc([N+](=O)[O-])c(Sc2c(Cl)cncc2Cl)s1` [Example 76, N-((3s,5s,7s)-adamantan-1-yl)-5-((3,5-dichloropyridin-4-yl)thio)-4-nitrothiophene-2-carboxamide] it was less than 5.00; in that of `O=C(NCc1cccc(-c2ccccc2)c1)c1cc([N+](=O)[O-])c(Sc2c(Cl)cncc2Cl)s1` [Example 58, N-([1,1′-biphenyl]-3-ylmethyl)-5-((3,5-dichloropyridin-4-yl)thio)-4-nitrothiophene-2-carboxamide], 5.00 to 6.00.
Consider `O=C(NC1CCNC1)c1cc([N+](=O)[O-])c(Sc2c(Cl)cncc2Cl)s1` (centres unmarked) [Example 195, 5-((3,5-dichloropyridin-4-yl)thio)-4-nitro-N-(pyrrolidin-3-yl)thiophene-2-carboxamide], for which the pEC50 is not below 6.00.
Consider `O=C(NCc1ccccc1Cl)c1cc([N+](=O)[O-])c(Sc2c(Cl)cncc2Cl)s1` [Example 60, N-(2-chlorobenzyl)-5-((3,5-dichloropyridin-4-yl)thio)-4-nitrothiophene-2-carboxamide], for which the pEC50 was 5.00 to 6.00.
In the case of `CS(=O)(=O)c1cccc(CNC(=O)c2cc([N+](=O)[O-])c(Sc3c(Cl)cncc3Cl)s2)c1` [Example 125, 5-((3,5-dichloropyridin-4-yl)thio)-N-(3-(methylsulfonyl)benzyl)-4-nitrothiophene-2-carboxamide] it was not below 6.00; in that of `Cc1ccsc1CNC(=O)c1cc([N+](=O)[O-])c(Sc2c(Cl)cncc2Cl)s1` [Example 56, 5-((3,5-dichloropyridin-4-yl)thio)-N-((3-methylthiophen-2-yl)methyl)-4-nitrothiophene-2-carboxamide], 5.00 to 6.00; in that of `Nc1ccc(NC(=O)c2cc([N+](=O)[O-])c(Sc3c(Cl)cncc3Cl)s2)cc1` [Example 235, N-(4-aminophenyl)-5-((3,5-dichloropyridin-4-yl)thio)-4-nitrothiophene-2-carboxamide], not below 6.00.
For `O=C(NCc1cccc(F)c1)c1cc([N+](=O)[O-])c(Sc2c(Cl)cncc2Cl)s1` [Example 128, 5-((3,5-dichloropyridin-4-yl)thio)-N-(3-fluorobenzyl)-4-nitrothiophene-2-carboxamide], the pEC50 was not below 6.00.
As to `O=C(NCCCN1CCCCC1)c1cc([N+](=O)[O-])c(Sc2c(Cl)cncc2Cl)s1` [Example 100, 5-((3,5-dichloropyridin-4-yl)thio)-4-nitro-N-(3-(piperidin-1-yl)propyl)thiophene-2-carboxamide], the pEC50 was not below 6.00.
In the case of `COCCNC(=O)c1cc([N+](=O)[O-])c(Sc2c(Cl)cncc2Cl)s1` [Example 53, 5-((3,5-dichloropyridin-4-yl)thio)-N-(2-methoxyethyl)-4-nitrothiophene-2-carboxamide] it was 5.00 to 6.00; in that of `O=C(O)CNC(=O)c1cc([N+](=O)[O-])c(Sc2c(Cl)cncc2Cl)s1` [Example 210, 2-(5-((3,5-dichloropyridin-4-yl)thio)-4-nitrothiophene-2-carboxamido)acetic acid], 5.00 to 6.00; in that of `CN(C)C1CCN(CCCNC(=O)c2cc([N+](=O)[O-])c(Sc3c(Cl)cncc3Cl)s2)CC1` [Example 224, 5-((3,5-dichloropyridin-4-yl)thio)-N-(3-(4-(dimethylamino)piperidin-1-yl)propyl)-4-nitrothiophene-2-carboxamide], 5.00 to 6.00.
With `O=C(Nc1ccc(F)c(C(F)(F)F)c1)c1cc([N+](=O)[O-])c(Sc2c(Cl)cncc2Cl)s1` [Example 140, 5-((3,5-dichloropyridin-4-yl)thio)-N-(4-fluoro-3-(trifluoromethyl)phenyl)-4-nitrothiophene-2-carboxamid], the pEC50 was not below 6.00.
For the compound `Cc1nc(NC(=O)c2cc([N+](=O)[O-])c(Sc3c(Cl)cncc3Cl)s2)sc1C` [Example 88, 5-((3,5-dichloropyridin-4-yl)thio)-N-(4,5-dimethylthiazol-2-yl)-4-nitrothiophene-2-carboxamide], the pEC50 was 5.00 to 6.00.
Under `COc1ccc(Cl)cc1NC(=O)c1cc([N+](=O)[O-])c(Sc2c(Cl)cncc2Cl)s1` [Example 130, N-(5-chloro-2-methoxyphenyl)-5-((3,5-dichloropyridin-4-yl)thio)-4-nitrothiophene-2-carboxamide] stands not below 6.00; under `O=C(c1cc([N+](=O)[O-])c(Sc2c(Cl)cncc2Cl)s1)N1CCC(F)CC1` [Example 74, (5-((3,5-dichloropyridin-4-yl)thio)-4-nitrothiophen-2-yl)(4-fluoropiperidin-1-yl)methanone], 5.00 to 6.00; under `O=[N+]([O-])c1cc(Br)sc1Sc1ccc(Cl)cc1Cl` [Example 33, 5-bromo-2-(2,4-dichlorophenyl)sulfanyl-3-nitro-thiophene], less than 5.00.
Under `CC(=O)c1cc([N+](=O)[O-])c(Sc2c(F)c(F)c(Cl)c(F)c2F)s1` [Example 272, 1-(5-((4-chloro-2,3,5,6-tetrafluorophenyl)thio)-4-nitrothiophen-2-yl)ethanone] stands 5.00 to 6.00 and < 5.00.
